Data from patent US20060222636A1, “Compositions, methods and kits relating to reprogramming adult differentiated cells and production of embryonic stem cell-like cells” (The Rockefeller University, priority 2003, published 2006).
Like-named read-outs stand apart in the source and are kept apart here.

What was measured:
[1] = test system: Erk1/2 and GSK-3β phosphorylation; type: cell-based, human; settings: for phosphorylation of Erk1/2 and GSK-3β in infected Schwann cells in presence of inhibitor: synchronized, continuous presence of inhibitor (15 μM); for M. leprae-induced Erk1/2 phosphorylation in presence of PKC inhibitor: 20 nM, serum starved 48 hours
Protocol: The cDNA produced was subsequently PCR amplified for 30 cycles using the various specific primers and fluorescent probes in a 384-well GeneAmp PCR system 9700 (Applied Biosystems, Foster City, Calif.). The level of each target gene was normalized to GAPDH gene as an endogenous reference. The data obtained were analyzed with the ABI PRISM 7900 HT Sequence detection system (Bulletin No. 2, Applied Biosystems). For control reactions the same master mixes were used but excluding the template RNA. Synchronization of Primary Schwann Cell and Kinase Inhibition Schwann cells that had been cultured for 30 days were synchronized for 48 hours by removing growth factor and serum. Schwann cells were then released to progress through the cell cycle by addition of 10% serum to the culture. Cytoplasmic and nuclear extracts obtained from these synchronized cells were prepared before (time 0) and after addition of serum at various time points (i.e., 9 to 18 hours after release). For Erk1/2 and pI3-k inhibition, pre-evaluated concentrations of specific MEK1/2 inhibitor UO126 (15 μM) and PD098059 (15 μM), pI3-k inhibitor LY294002 (15 μM) (Cell Signaling Technology) and SOS inhibitor (10 μg) (Upstate Biotechnology, Lake Placid, N.Y.) were added to the culture medium during synchronization and serum release, and cytoplasmic and nuclear extracts were prepared as described above and the proteins were immunoblotted using antibodies to phospho-Erk1/2, phospho-Akt, phosphoGSK-3β and cyclin-D1. For SOS inhibition studies, cell permeable SOS inhibitory peptide was added and the cells were treated as described above to analyze the effect of SOS inhibitor on M. leprae-induced activation of the above-referenced signaling molecules. None of the inhibitors examined produced any detectable apoptosis or non-apoptotic Schwann cell death under these conditions.
(§1) Human Schwann cells that had been cultured for 30 days with and without M. leprae were synchronized for 48 hours and then released to re-enter the cell cycle by addition of 10% serum. Cytoplasmic and nuclear extracts of these synchronized cells were prepared before and after addition of serum at different time points (9 to 18 hours after release). For Erk1/2 and PI3-k inhibition, pre-evaluated concentrations of specific MEK1/2 inhibitor UO126 (15 μM) and PD098059 (15 μM), pI3-k inhibitor LY294002 (15 μM) (Cell Signaling Technology), SOS inhibitor (10 μg) (Upstate Biotechnology, Lake Placid N.Y.) were used. For PKC and lck inhibition, pan-PKC inhibitor bisindolylmaleimide-I (20 nM) and Lck inhibitor PP2 (10 μM) (Calbiochem-Novabiochem Corporation, CA), respectively, were added to the culture medium during synchronization, and cytoplasmic and nuclear extracts were prepared as described above and were immunoblotted with antibodies to various phospho-specific signaling antibodies. None of the inhibitors produced any apoptosis or Schwann cell death under these conditions.

human Schwann cells = assay: Apoptosis markers (TUNNEL assays, immunoblot of Caspase-3, Caspase-9, PARP); type: cell-based; settings: Camptothecin (1.5 μM)-treated Schwann cells, within 48 hours, positive control
Protocol: Total protein extracts were prepared from M. leprae infected and non-infected human Schwann cells in cell lysis and nuclear extraction buffer containing 62 mM Tris-HCl pH 6.8, 2% SDS, 10% Glycerol, 50 mM DTT and 0.2% protease inhibitors cocktail (Sigma, St. Louis, Mo.). Lysates were cleared by centrifugation and the protein content was determined according to the BCA method per manufacturer's instructions (PIERCE Chemical, Rockford Ill.). 40 μg of total cellular extracts were separated by sodium dodecyl sulfate-polyacrylamide gel electrophoresis (SDS-PAGE) and transferred to nitrocellulose membranes (Schleicher & Schuell, Keene, N.H.). Bound antibodies were detected using species-specific secondary antibodies coupled to HRP (Cell Signaling Technology, Beverly, Mass.) followed by enhanced chemiluminescence development (PIERCE Chemical, Rockford Ill.).
Total protein extracts were prepared by harvesting M. leprae infected human Schwann cells in cell lysis buffer and non-infected human Schwann cells in nuclear extracting buffer. Lysates were cleared by centrifugation and the protein content was determined according to the BCA method (PIERCE Chemical, Rockford Ill.). […] Protein expression intensity was normalized to β-actin expression and quantified with a densitometer (Alpha Innotech Corporation, San Leandro, Calif.) using the Alpha Imager 2200 v.5.5 software. […]

PKCα/βII = assay: Phospho-PKC isoform immunoblot; type: cell-based, human
Protocol: as §1
Although PKC is known to play a role in oligodendrocyte proliferation and differentiation (Bhat et al., 1992, J. Neurosci. Res. 32:340-349; Stariha and Kim, 2001, Microsc. Res. Tech. 52:680-688), much less is known about its function in Schwann cells. […]

Lck/Ser-158 = assay: Phospho-Lck/Ser-158 immunoblot; type: cell-based, human; settings: PKC inhibitor (10 μM)
Protocol: as §1, with “For PKC and lck inhibition, pan-PKC inhibitor bisindolylmaleimide-I (20 nM) and Lck inhibitor PP2 (10 μM) (Calbiochem-Novabiochem Corporation, CA), respectively, were added to the culture medium during synchronization, and cytoplasmic and nuclear extracts were prepared as described above and were immunoblotted with antibodies to various phospho-specific signaling antibodies.” left out
To examine if the addition of exogenous Heregulin-β1 can induce Lck/Ser-158 phosphorylation, human Schwann cells were serum-starved for 48 hours and then incubated with 10 nM […] for 30 minutes. Subsequently, total protein lysates were prepared and the phosphorylation state of Erk1/2, PKC-alpha-betaII/βII and Lck-Ser158 were examined using phospho-specific antibodies.

cyclin D1 = assay: Nuclear cyclin D1 immunoblot of synchronized Schwann cells; type: cell-based, human; settings: added to MEK and Pi3-kinase inhibitors
Protocol: Protein expression intensity was normalized using β-actin expression as an internal control marker and quantified with a densitometer (Alpha Innotech Corporation, San Leandro, Calif.) using the Alpha Imager 2200 v.5.5 software. For preparation of nuclear and cytoplasmic extracts, cells were incubated in a buffer containing 10 mM HEPES pH 7.5, 60 mM KCl, 1 mM EDTA, 0.1% NP-40, 1 mM DTT, 1 mM PMSF and protease inhibitors cocktail for 10 minutes on ice. Lysates were then centrifuged for 10 minutes and the supernatant, which comprised of cytoplasmic extract, was collected. The pellet was re-suspended in a buffer containing 50 mM Tris-HCl pH 7.5, 150 mM NaCl, 1% sodium lauryl sarcosine, 1% NP-40, 0.1% SDS, 1 mM EDTA and protease inhibitors cocktail. After brief sonication, the lysates were centrifuged for 10 minutes and the supernatant, consisting of nuclear extract, was collected. The protein content in both extracts was determined using the BCA method per manufacturer's instructions (Pierce Chemical, Rockford, Ill.).
The cDNA produced was subsequently PCR amplified for 30 cycles using the various specific primers and fluorescent probes in a 384-well GeneAmp PCR system 9700 (Applied Biosystems, Foster City, Calif.). […] The data obtained were analyzed with the ABI PRISM 7900 HT Sequence detection system (Bulletin No. 2, Applied Biosystems). […]

[2] = test system: human primary Schwann cells; assay: Cell cycle FACS analysis (propidium iodide); type: cell-based
Protocol: Human primary Schwann cells, that had been cultured for 15 and 30 days with and without M. leprae were trypsinized and adjusted to equal cell number. For the experiments with kinase inhibitors, synchronized infected and control cells were treated with pre-evaluated concentrations of various inhibitors as described previously elsewhere herein, and with different combinations of inhibitors before being processed for cell cycle FACS (Lemoine and Marriott, 2001, J. Biol. Chem. 276:31851-31857). To assess the effect of Lck inhibitor on heregulin-induced cell cycle progression, synchronized Schwann cells were treated with heregulin for 30 minutes in the presence and absence of Lck inhibitor. Cells were then washed with PBS, fixed with 85% ethanol overnight at […] and suspended in 1 ml PBS containing 1% FBS, RNase A (250 μg/ml; Roche Molecular Biochemicals) and 100 μg/ml Propidium Iodide (Sigma) for 30 minutes at 37° C. Stained cells were washed twice with PBS and subjected to FACS analysis on a Becton Dickinson FACScan cytometer (Ruhl et al., 1999, J. Biol. Chem. 274: 34361-34368). The cell cycle profile was analyzed with CellQuest software (Becton & Dickinson).

N#CC(=C(/N)Sc1ccccc1N)/C(C#N)=C(\N)Sc1ccccc1N [U0126]
phosphorylation of Erk1/2 and GSK-3β in infected Schwann cells in presence of inhibitor [1]: not inhibited

CC[C@@]1(O)C(=O)OCc2c1cc1n(c2=O)Cc2cc3ccccc3nc2-1 [Camptothecin]
expression of apoptosis markers caspase 3, caspase 9, PARP (human Schwann cells): induced the expression of these apoptotic markers | expression of apoptosis markers caspase 3, caspase 9, PARP (human Schwann cells; listed as camptothecin): express all three apoptosis markers

CN(C)CCCn1cc(C2=C(c3c[nH]c4ccccc34)C(=O)NC2=O)c2ccccc21 [bisindolylmaleimide-I]
M. leprae-induced phospho-PKCα/βII in presence of pan-PKC inhibitor (PKCα/βII): markedly blocked | phosphorylation at Lck/Ser-158 in presence of PKC inhibitor (Lck/Ser-158; listed as PKC inhibitor): completely abolished | phosphorylation at Lck/Ser-158 in presence of PKC inhibitor (Lck/Ser-158; listed as PKCI): abrogated | M. leprae-induced Erk1/2 phosphorylation in presence of PKC inhibitor ([1]; with MEK1/2 and Pi3K inhibitors): significantly blocked | M. leprae-induced Erk1/2 phosphorylation in presence of PKC inhibitor ([1]; with MEK1/2 and Pi3K inhibitors, listed as PKC inhibitor): dramatically down-regulated | apoptosis or cell death of treated cells ([1]; bisindolylmaleimide-I 20 nM): no apoptosis or cell death

CC(C)(C)n1nc(-c2ccc(Cl)cc2)c2c(N)ncnc21 [PP2]
nuclear cyclin D1 in presence of Lck inhibitor (cyclin D1; listed as Lck inhibitor): dramatically reduced | nuclear cyclin D1 in presence of Lck inhibitor (cyclin D1; listed as Lck-inhibitor): significant blockade | net M. leprae-induced S-phase cell population in presence of Lck inhibitor ([2]; added to MEK and Pi3-kinase inhibitors): dramatically reduced | net S-phase population induced by exogenous heregulin-β1 in presence of Lck inhibitor ([2]; listed as Lck inhibitor): did not affect | net S-phase population induced by exogenous heregulin-β1 in presence of Lck inhibitor ([2]; listed as Lck-inhibitor): fails to respond | M. leprae-induced phosphorylation of Erk1/2 in presence of Lck inhibitor ([1]; 10 μM, with MEK1/2 and Pi3K inhibitors, 48 hours): significant reduction

O=c1cc(N2CCOCC2)oc2c(-c3ccccc3)cccc12 [LY294002]
phosphorylation of Erk1/2 and GSK-3β in infected Schwann cells in presence of inhibitor [1]: not inhibited
